According to patent US20220125051A1, “PRE-HARVEST DESICCATION METHOD” (SYNGENTA CROP PROTECTION AG, priority 2019, published 2022):
Where two headings read alike, the source gives them in different places.

How the values were obtained:
Test in all cases: Post-emergence efficacy, Method A
Format in all cases: in vivo
[1] = system: Chenopodium album (CHEAL); conditions: Chenopodium album, post-emergence, 312 h, evaluated after 13 days
Protocol: (§1) Seeds of a variety of test species were sown in standard soil in pots. After cultivation for 14 days (post-emergence) under controlled conditions in a glasshouse (at 24/16° C., day/night; 14 hours light; 65% humidity), the plants were sprayed with an aqueous spray solution derived from the dissolution of the technical active ingredient formula (I) in a small amount of acetone and a special solvent and emulsifier mixture referred to as IF50 (11.12% Emulsogen EL360 TM+44.44% N-methylpyrrolidone+44.44% Dowanol DPM glycol ether), to create a 50 g/I solution which was then diluted to required concentration using 0.25% or 1% Empicol ESC70 (Sodium lauryl ether sulphate)+1% ammonium sulphate as diluent. The test plants were then grown in a glasshouse under controlled conditions (at 24/16° C., day/night; 14 hours light; 65% humidity) and watered twice daily. After 13 days the test was evaluated (100=total damage to plant; 0=no damage to plant).
(§2) Ipomoea hederacea (IPOHE), Euphorbia heterophylla (EPHHL), Chenopodium album (CHEAL), Amaranthus palmeri (AMAPA), Lolium perenne (LOLPE), Digitaria sanguinalis (DIGSA), Eleusine indica (ELEIN), Echinochloa crus-galli (ECHCG), Setaria faberi (SETFA)

[2] = system: Digitaria sanguinalis (DIGSA); conditions: Digitaria sanguinalis, post-emergence, 312 h, evaluated after 13 days
Protocol: as §1, §2

Eleusine indica (ELEIN) = conditions: Eleusine indica, post-emergence, 312 h, evaluated after 13 days
Protocol: as §1, §2

[3] = system: Echinochloa crus-galli (ECHCG); conditions: Echinochloa crus-galli, post-emergence, 312 h, evaluated after 13 days
Protocol: as §1, §2

Lolium perenne (LOLPE) = conditions: Lolium perenne, post-emergence, 312 h, evaluated after 13 days
Protocol: as §1, §2

[4] = system: Ipomoea hederacea (IPOHE); conditions: Ipomoea hederacea, post-emergence, 312 h, evaluated after 13 days
Protocol: as §1, §2

Setaria faberi (SETFA) = conditions: Setaria faberi, post-emergence, 312 h, evaluated after 13 days
Protocol: as §1, §2

[5] = system: Euphorbia heterophylla (EPHHL); conditions: Euphorbia heterophylla, post-emergence, 312 h; Application rate 500 g/Ha; evaluated after 13 days; 100=total damage to plant, 0=no damage to plant; read-out: Control of weed species after post-emergence application, EPHHL
Protocol: as §1, §2

[6] = system: Amaranthus palmeri (AMAPA); conditions: Amaranthus palmeri, post-emergence, 312 h; Application Rate 500 g/Ha; evaluated after 13 days; Method A; read-out: Control of weed species after post-emergence application, AMAPA (100=total damage to plant; 0=no damage to plant)
Protocol: as §1, §2

[7] = Application rate 500 g/Ha, 100=total damage to plant, 0=no damage to plant, read-out: Control of weed species after post-emergence application, CHEAL
[8] = Application rate 500 g/Ha, 100=total damage to plant, 0=no damage to plant, read-out: Control of weed species after post-emergence application, DIGSA
[9] = Application rate 500 g/Ha, 100=total damage to plant, 0=no damage to plant, read-out: Control of weed species after post-emergence application, ELEIN
[10] = Application rate 500 g/Ha, 100=total damage to plant, 0=no damage to plant, read-out: Control of weed species after post-emergence application, ECHCG
[11] = Application rate 500 g/Ha, 100=total damage to plant, 0=no damage to plant, read-out: Control of weed species after post-emergence application, LOLPE
[12] = Application rate 500 g/Ha, 100=total damage to plant, 0=no damage to plant, read-out: Control of weed species after post-emergence application, IPOHE
[13] = Application rate 500 g/Ha, 100=total damage to plant, 0=no damage to plant, read-out: Control of weed species after post-emergence application, SETFA
[14] = Application Rate 500 g/Ha, Method A, read-out: Control of weed species after post-emergence application, CHEAL (100=total damage to plant; 0=no damage to plant)
[15] = Application Rate 500 g/Ha, Method A, read-out: Control of weed species after post-emergence application, DIGSA (100=total damage to plant; 0=no damage to plant)
[16] = Application Rate 500 g/Ha, Method A, read-out: Control of weed species after post-emergence application, ELEIN (100=total damage to plant; 0=no damage to plant)
[17] = Application Rate 500 g/Ha, Method A, read-out: Control of weed species after post-emergence application, ECHCG (100=total damage to plant; 0=no damage to plant)
[18] = Application Rate 500 g/Ha, Method A, read-out: Control of weed species after post-emergence application, LOLPE (100=total damage to plant; 0=no damage to plant)
[19] = Application Rate 500 g/Ha, Method A, read-out: Control of weed species after post-emergence application, IPOHE (100=total damage to plant; 0=no damage to plant)
[20] = Application Rate 500 g/Ha, Method A, read-out: Control of weed species after post-emergence application, SETFA (100=total damage to plant; 0=no damage to plant)

Row | Compound | pest or weed control at 500 g/ha [1, 7] | pest or weed control at 500 g/ha [2, 8] | pest or weed control at 500 g/ha (Eleusine indica (ELEIN); [9]) | pest or weed control at 500 g/ha [3, 10] | pest or weed control at 500 g/ha (Lolium perenne (LOLPE); [11]) | pest or weed control at 500 g/ha [4, 12] | pest or weed control at 500 g/ha (Setaria faberi (SETFA); [13]) | pest or weed control at 500 g/ha [5] | pest or weed control at 500 g/ha [1, 14] | pest or weed control at 500 g/ha [2, 15] | pest or weed control at 500 g/ha (Eleusine indica (ELEIN); [16]) | pest or weed control at 500 g/ha [3, 17] | pest or weed control at 500 g/ha [6] | pest or weed control at 500 g/ha (Lolium perenne (LOLPE); [18]) | pest or weed control at 500 g/ha [4, 19] | pest or weed control at 500 g/ha (Setaria faberi (SETFA); [20])
1 | Cc1cnc(-c2cc[n+](CCS(=O)(=O)[O-])nc2)cn1 [Compound A61] | 80% | 100% | 100% | 90% | 70% | 50% | 100% | 90% |  |  |  |  |  |  |  | 
2 | NC(=O)c1ccc(-c2cc[n+](CCCS(=O)(=O)[O-])nc2)nc1 [Compound A183] |  |  |  |  |  |  |  |  | 0% | 30% | 10% | 20% | 10% | 10% | 20% | 10%
3 | CC(C[n+]1ccc(-c2ccncn2)cn1)C(=O)O (stereo not shown) [Compound A171] |  |  |  |  |  |  |  |  | 80% | 60% | 80% | 60% | 100% | 70% | 80% | 60%
4 | O=P([O-])(O)C[n+]1ccc(-c2ncccn2)cn1 [Compound A205, hydroxy-[(4-pyrimidin-2-ylpyridazin-1-ium-1-yl)methyl]phosphinate] |  |  |  |  |  |  |  |  | 60% | 80% | 60% | 60% | 80% | 40% | 80% | 80%
5 | CN(C)c1cnc(-c2cc[n+](CCS(=O)(=O)[O-])nc2)nc1 [Compound A18] | 0% | 50% | 60% | 30% | 10% | 10% | 40% | 10% |  |  |  |  |  |  |  | 
6 | N#Cc1ccc(-c2cc[n+](CCS(=O)(=O)[O-])nc2)nc1 [Compound A169] |  |  |  |  |  |  |  |  | 70% | 50% | 90% | 40% | 100% | 50% | 40% | 50%
7 | O=S(=O)([O-])N1CCCC1C[n+]1ccc(-c2ncccn2)cn1 (stereo not shown) [Compound A222] |  |  |  |  |  |  |  |  | 60% | 90% | 60% | 70% | 80% | 20% | 70% | 80%
8 | CC(CC[n+]1ccc(-c2ncccn2)cn1)S(=O)(=O)[O-] (stereo not shown) [Compound A185] |  |  |  |  |  |  |  |  | 80% | 30% | 30% | 40% | 100% | 30% | 30% | 50%
